≈ marks a conversion by molar mass, not a printed value. Like-named read-outs stand apart in the source and are kept apart here. No end group written: not given here.
How the values were obtained:
[1] = tested on: Candida glabrata ATCC15126; test: Antimicrobial assays II, NCCLS broth microdilution MIC; assay type: cell-based; conditions: Table 10; in µg/mL
[2] = tested on: E. coli UB1005; assay type: cell-based, Escherichia coli
[3] = tested on: Candida albicans 105; assay type: cell-based; conditions: in µg/mL
[4] = tested on: Pseudomonas aeruginosa H187; assay type: cell-based; conditions: in µg/mL
[5] = tested on: S. aureus (MRSA); assay type: cell-based, Staphylococcus aureus; conditions: in µg/mL
[6] = tested on: Candida tropicalis ATCC13803; test: Antimicrobial assays II, NCCLS broth microdilution MIC; assay type: cell-based; conditions: Table 10
Procedure: Anti-microbial activity against a broader range of pathogens (including clinical strains) than were tested in Example 2. It should be noted that somewhat different protocols were employed for the assays in Example 2 and Example 3.
MICs were determined for this Example using a slightly modified version of the NCCLS (National Committee for Clinical Laboratory Standards) broth microdilution method as described previously (Steinberg et al., AAC 41: 1738, 1997). Briefly, antimicrobial agents were prepared as 10× concentrates in the most appropriate solvent. For the peptide, 0.01% acetic acid containing 0.2% bovine serum albumin as a carrier protein was used. Inocula were prepared by resuspending colonies from a BAP in medium and adjusting the suspension to match that of a 0.5 McFarland standard. The suspension was diluted into fresh medium (as recommended by NCCLS for the organism) to give 2×10^5 to 7×10^5 CFU/ml for bacteria or 2×10^3 to 7×10^3 CFU/ml for Candida. After dispensing 100 μl aliquots of the microbial suspension into each well of a 96-well polypropylene microtiter plate, 11 μl of test compound was added. […] For facultative anaerobes incubation was performed in 7% carbon dioxide and for strict anaerobes in an oxygen free environment maintained using a standard anaerobic “jar”. All MICs were performed three times and the mean value determined.

[7] = tested on: S. typhimurium 14028S; assay type: cell-based, Salmonella typhimurium
[8] = tested on: Staph. aureus 29213; test: microbe, parasite or virus in culture; conditions: for MBC: Staphylococcus aureus, 29213, read-out: MBC, Without peptide; for MBC, With 5 μg/mL peptide: with 5 μg/mL peptide Shiva-10
Excerpt: This experiment determined the peptide MBC in the absence of the antimicrobial agent, or in the presence of the indicated concentration of antimicrobial agent

[9] = tested on: P. aeruginosa H374; assay type: cell-based, Pseudomonas aeruginosa; conditions: Table 14; in µg/mL
[10] = tested on: S. epidermidis C621; assay type: cell-based, Staphylococcus epidermidis; conditions: Table 15
[11] = tested on: Escherichia coli 25922; test: microbe, parasite or virus in culture; conditions: for MBC: Escherichia coli, 25922, read-out: MBC, Without peptide
Excerpt: Synergy between peptide Shiva-10 (SEQ ID NO:4) and various antimicrobial agents was investigated against Escherichia coli 25922.
Synergy between tetracycline and various peptides was investigated against Escherichia coli 25922 MBC. […] When combined with the peptides, the concentration of tetracycline was held at 1.5 ppm.

| Molecule | MIC C. glabrata ATCC15126 [1] | MIC E. coli UB1005 ([2]; Table 11) [µg/mL] | MIC C. albicans 105 ([3]; Table 10) | MIC P. aeruginosa H187 ([4]; Table 11) | MIC S. aureus SAP0017 ([5]; Table 11, strain SAP0017) | MIC C. tropicalis ATCC13803 [6] [µg/mL] | MIC S. typhimurium 14028S ([7]; Table 11) [µg/mL] | also measured |
| --- | --- | --- | --- | --- | --- | --- | --- | --- |
| FAKLLAKFLKKAL-NH2 [P113 (77)] | 32 | 32 | 32 | 32-128 | 32 | 4 | 44 | – |
| FAKKALKALKKL-NH2 [P47 (29)] | 64 | 64 | 32 | 64-128 | >128 | 1 | > 128 | – |
| NC[C@H]1O[C@H](O[C@H]2[C@H](O)[C@@H](O[C@H]3O[C@H](CO)[C@@H](O)[C@H](N)[C@H]3O)[C@H](N)C[C@@H]2N)[C@H](N)C[C@@H]1O [Tobramycin] | – | – | – | – | – | – | – | MBC [8]: 25 µg/mL (≈ 53.5 µM); MBC, With 5 μg/mL peptide [8]: 10 µg/mL (≈ 21.4 µM) |
| FAKLLAKALKKL-NH2 [P103 (67)] | 16 | 32 | 16 | 64 | 64 | 2 | 128 | – |
| FAKKLAKLAKKL-NH2 [P106 (70)] | 64 | 64 | 32 | >128 | >128 | 2 | > 128 | – |
| FALALKLAKKAL-NH2 [P167 (128)] | 128 | 32 | 64 | 128 | 128 | 8 | 64 | – |
| FALALKALKK-NH2 [P169 (130)] | 128 | 32 | 64 | 128 | >128 | 8 | 64 | MIC E. coli UB1005 ([2]; Table 14): 64 µg/mL; MIC C. albicans 105 ([3]; Table 15): 64; MIC P. aeruginosa H374 [9]: 128; MIC S. epidermidis C621 [10]: 32 µg/mL; MIC P. aeruginosa H187 ([4]; Table 15): >128; MIC S. aureus SAP0017 ([5]; Table 15, strain SAP0017): >128; MIC S. typhimurium 14028S ([7]; Table 14): 64 µg/mL |
| FAKLLAKLAKKL-NH2 [P49 (31)] | 16 | 32 | 16 | 16-64 | 64 | 2 | 64 | – |
| FAKLLAKALKLKL-NH2 [P101 (65)] | 32 | 32 | 32 | 32-128 | 128 | 4 | 128 | – |
| FAKKLAKKLAKAL-NH2 [P74 (50)] | 16 | 16 | 16 | 32-128 | >128 | 1 | 64 | – |
| VAKLLAKLAKKVL-NH2 [P154 (116)] | 128 | 64 | 64 | >128 | >128 | 8 | > 128 | – |
| FAKKLKKLAKKL-NH2 [P79 (54)] | 128 | 32 | 32 | >128 | >128 | 2 | > 128 | – |
| FKLAFKLAKKAFL-NH2 [P122 (84)] | 64 | 64 | 32 | 32-128 | 128 | 4 | 128 | – |
| FALAKKALKKAKKAL-NH2 [P40 (22)] | 32 | 64 | 32 | >128 | >128 | 1 | > 128 | – |
| FAKKLAKKAKLAKKL-NH2 [P77 (53)] | 64 | 64 | 16 | 64-128 | >128 | 1 | > 128 | – |
| CC1(C)S[C@@H]2[C@H](NC(=O)[C@H](N)c3ccccc3)C(=O)N2[C@H]1C(=O)O [Ampicillin] | – | – | – | – | – | – | – | MBC [8]: 5 µg/mL (≈ 14.3 µM); MBC, With 5 μg/mL peptide [8]: 2.5 µg/mL (≈ 7.15 µM) |
| C[C@H]1c2cccc(O)c2C(=O)C2=C(O)[C@]3(O)C(=O)C(C(N)=O)=C(O)[C@@H](N(C)C)[C@@H]3[C@@H](O)[C@@H]21 [Doxycycline] | – | – | – | – | – | – | – | MBC [11]: 5 µg/mL; MBC, With peptide ([11]; with 15 μg/mL peptide Shiva-10): 1 µg/mL |
| NCC[C@H](O)C(=O)N[C@@H]1C[C@H](N)[C@@H](O[C@H]2O[C@H](CN)[C@@H](O)[C@H](O)[C@H]2O)[C@H](O)[C@H]1O[C@H]1O[C@H](CO)[C@@H](O)[C@H](N)[C@H]1O [Amikacin] | – | – | – | – | – | – | – | MBC [11]: 150 µg/mL; MBC, With peptide ([11]; with 5 μg/mL peptide Shiva-10): 50 µg/mL |
